Measurements taken from PubChem BioAssay (NCI).
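Method: 48-hour compound exposure of cells in 96-well plates, five concentrations, linear interpolation of endpoints. Here, GI50 denotes the concentration required for 50% inhibition of growth. TGI marks complete inhibition of growth.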

What was measured:
Experiment in all cases: DTP human tumour cell line panel, 48 h
[1] = test system: 786-0 renal
[2] = test system: ACHN renal
[3] = test system: RPMI-8226 leukemia
[4] = test system: RXF 393 renal
[5] = test system: SK-OV-3 ovarian
[6] = test system: TK-10 renal
[7] = test system: UO-31 renal
[8] = test system: COLO 205 colon
[9] = test system: MDA-MB-231 breast
[10] = test system: HCT-15 colon

SMILES | TGI [1] [µM] | TGI [2] [µM] | TGI [3] [µM] | TGI [4] [µM] | TGI [5] [µM] | TGI [6] [µM] | TGI [7] [µM] | GI50 [1] [µM] | GI50 [2] [µM] | GI50 [8] [µM] | TGI [8] [µM] | GI50 [9] [µM] | TGI [9] [µM] | GI50 [4] [µM] | GI50 [6] [µM] | GI50 [7] [µM] | GI50 [10] [µM] | TGI [10] [µM] | GI50 [5] [µM]
CCNC(=O)O/N=C1\CCC2[C@@H]3CC=C4C[C@@H](OC5CCCCO5)CC[C@]4(C)C3CC[C@]12C (some centres undefined) | 6.48 | 2.81 | 4.8 | 5.64 | 17.3 | 3.81 | 2.85 |  |  |  |  |  |  |  |  |  |  |  | 
COc1cc(/C=C2\C[C@H]3[C@@H]4CC=C5C[C@@H](O)CC[C@]5(C)[C@H]4CC[C@]3(C)[C@H]2O)ccc1OCCCn1ccnc1 | 3.09 | 3.34 |  | 43.4 |  | 2.09 | > 50 | 1.23 | 1.28 | 8.74 | > 50 | 0.863 | 1.74 | 2.52 | 0.738 | 2.12 |  |  | 
Clc1cc(Cl)cc(N2N=C(c3cccc(Nc4ccncc4)c3)CC2c2ccc3c(c2)OCO3)c1 (centres undefined) | 3.14 | 3.06 |  |  | 8.38 |  | 2.67 | 1.69 | 1.69 | 1.87 | 3.88 | 1.37 | 2.72 |  |  | 1.36 | 1.76 | 3.44 | 2.54
OCCN1CCN2C=C(C3CCCC4N(CCO)CCN34)CCC21 (centres undefined) | > 100 | > 100 | 44.9 | > 85 | > 100 | > 100 | > 100 |  |  |  | > 100 |  |  |  |  |  |  | > 100 | 
Cc1ccccc1-n1c2nc(=O)n(C)c(=O)c-2nc2ccccc21 | 58 | 21 | 44.9 | 39.2 | > 100 | 35.2 | 66.1 |  |  |  | 13.9 |  |  |  |  |  |  | 24.3 | 
Cc1ccc(NC(=O)/C(Cl)=C(/Cl)C(=O)O)cc1 | 32.6 | 30.1 | 49.8 | 45.8 | 35.8 | 33 | 31.8 |  |  |  | 20.3 |  |  |  |  |  |  | 28.9 | 
CN1CCN(C)C12C=CC=CC21CC1 | > 100 | > 100 | > 100 | > 100 | > 100 | > 100 | > 100 |  |  |  | > 100 |  |  |  |  |  |  | > 100 | 
Cc1ccc2c(c1)S(=O)(=O)c1ccc3ccccc3c1N2 | > 100 | > 100 |  | > 100 | > 100 | > 100 | > 100 |  |  |  | > 100 |  | > 100 |  |  |  |  | > 100 | 
Clc1ccc(-c2c(C3=NCCCN3)nnn2-c2ccccc2)cc1 | > 100 | > 100 |  | > 100 | > 100 | > 100 | > 100 |  |  |  | > 100 |  |  |  |  |  |  | > 100 | 
NN1C(=O)C(CCO)S/C1=N/N=C1/SC(CCO)C(=O)N1N (centres undefined) | > 100 | > 100 | > 100 | > 100 | > 100 |  | > 100 |  |  |  | > 100 |  |  |  |  |  |  | > 100 | 
NNC(=O)N/N=C1\C(=O)N(c2ccc(Cl)c(Cl)c2)C(=O)C(=O)C1c1nc2ccccc2s1 (centres undefined) | > 100 | > 100 |  | > 100 | > 100 | > 100 | > 100 |  |  |  | > 100 |  |  |  |  |  |  | > 100 | 
